Data: patent US20090202430A1, “COMPOSITION FOR CYTOCOMPATIBLE, INJECTABLE, SELF-GELLING POLYSACCHARIDE SOLUTIONS FOR ENCAPSULATING AND DELIVERING LIVE CELLS OR BIOLOGICALLY ACTIVE FACTORS” (BIO SYNTECH CANADA INC., priority 2002, published 2009)

Key:
cells = experiment: Viability of cells maintained in cross-linker solution (FIG. 4A); format: cell-based; settings: cells incubated in 0.3% peroxide for the same time period (up to 72 hours)
Experimental: FIG. 4A illustrates viability of cells maintained in hydroxyethyl cellulose, or glyoxal cross-linker for over an hour;
In FIG. 4A, high viability is maintained after encapsulation in cross-linked chitosan with glyoxal, or hydroxyethyl cellulose-glyoxal. FIG. 4A illustrates that the active hydroxyethyl cellulose-cross linker is cytocompatible. Cells incubated up to 72 hours in active cross-linker remain over 95% viable. Cells incubated in 0.3% peroxide for the same time period are 100% non-viable. After mixing with chitosan and injecting through a syringe with a 26-gauge needle, encapsulated cells in solid gel remain over 95% viable. After mixing with chitosan and pouring into a petri, encapsulated cells in solid gel remain over 95% viable after 1 day of culture.

encapsulated cells = experiment: MTT assay (live cell metabolism) and Hoechst DNA assay (cell proliferation) of cells in cross-linked chitosan gels (FIG. 4B); format: cell-based; settings: MTT and Hoechst DNA assays, after encapsulation
Text: In FIG. 4B, as shown by MTT assay on day 1 encapsulated cells, hydroxyethyl cellulose offers additional protection to cells immediately post-encapsulation.

Structure (SMILES)	non-viable cells (cells) [%]	viability and proliferation of cells encapsulated in chitosan gel (encapsulated cells)
OO [peroxide]	100	
O=CC=O [glyoxal]		viable after encapsulation and proliferate in the gel
